As usually defined, the EC50 is the concentration needed to bring the measured effect to its halfway point.

The first assay relates to HCV 1b genotype. Put plainly: HCV Replicon assay (HCV-neo replicon cells, wild-type). The assay is classed as cell-based. The settings on record: HCV 1b genotype replicon; class symbols. The procedure, abridged:
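Assay used wild-type HCV genotype 1b replicon cells carrying neo, with luciferase reporter read-outs in some formats.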
(Replicon systems follow genome replication, usually without infectious particles.)
For `CCc1ccccc1C(=O)N1CCC[C@H]1c1nc2ccc(C#Cc3ccc4[nH]c([C@@H]5CCCN5C(=O)[C@H]5CCCO5)nc4c3)cc2[nH]1` [Example M54.2], the EC50 was in the range of 100 to 999 nM.
Consider `COc1ccc(C)cc1C(=O)N1CCC[C@H]1c1nc2ccc(C#Cc3ccc4[nH]c([C@@H]5CCCN5C(=O)[C@H]5CCCO5)nc4c3)cc2[nH]1` [Example M54.14, 5-((2S-((2S)-1-(2-methoxy-5-methylbenzoyl)-2-pyrrolidinyl)-1H-benzimidazol-6-yl)ethynyl)-2-((2S)-1-((2R)-tetrahydro-2-furanylcarbonyl)-2-pyrrolidinyl)-1H-benzimidazole], for which the EC50 is 100 to 999 nM.

Still in this assay, the particulars now being: Hepatitis C virus, HCV 1b genotype replicon; class symbols.
Take `O=C(Cc1cccnc1)N1CCC[C@H]1c1nc2ccc(C#Cc3ccc4[nH]c([C@@H]5CCCN5C(=O)[C@H]5CCCO5)nc4c3)cc2[nH]1` [Example M49, 5-((2-((2S)-1-(3-pyridinylacetyl)-2-pyrrolidinyl)-1H-benzimidazol-6-yl)ethynyl)-2-((2S)-1-((2R)-tetrahydro-2-furanylcarbonyl)-2-pyrrolidinyl)-1H-benzimidazole]: the EC50 was less than 4.57 nM.
On the same count and under the same terms, the result for `O=C(Cc1cccs1)N1CCC[C@H]1c1nc2cc(C#Cc3ccc4nc([C@@H]5CCCN5C(=O)[C@H]5CCCO5)[nH]c4c3)ccc2[nH]1` [Example M50, 5-((2-((2S)-1-((2R)-tetrahydro-2-furanylcarbonyl)-2-pyrrolidinyl)-1H-benzimidazol-6-yl)ethynyl)-2-((2S)-1-(2-thienylacetyl)-2-pyrrolidinyl)-1H-benzimidazole] reads less than 4.57 nM; that for `O=C(c1ccco1)N1CCC[C@H]1c1nc2ccc(C#Cc3ccc4[nH]c([C@@H]5CCCN5C(=O)[C@H]5CCCO5)nc4c3)cc2[nH]1` [Example M51, 5-((2-((2S)-1-(2-furoyl)-2-pyrrolidinyl)-1H-benzimidazol-6-yl)ethynyl)-2-((2S)-1-((2R)-tetrahydro-2-furanylcarbonyl)-2-pyrrolidinyl)-1H-benzimidazole], less than 4.57 nM.
On the same count and under the same terms, with `O=C(CC1CC1)N1CCC[C@H]1c1nc2ccc(C#Cc3ccc4[nH]c([C@@H]5CCCN5C(=O)[C@H]5CCCO5)nc4c3)cc2[nH]1` [Example M52, 5-((2-((2S)-1-(cyclopropylacetyl)-2-pyrrolidinyl)-1H-benzimidazol-6-yl)ethynyl)-2-((2S)-1-((2R)-tetrahydro-2-furanylcarbonyl)-2-pyrrolidinyl)-1H-benzimidazole] the figure was 4.57 to 99 nM.
The same measure, in the same setting: with `CN(C)[C@@H](C(=O)N1CCC[C@H]1c1nc2cc(C#Cc3ccc4[nH]c([C@@H]5CCCN5C(=O)[C@H]5CCCO5)nc4c3)ccc2[nH]1)c1ccccc1` [Example M53, (1R)-N,N-dimethyl-2-oxo-1-phenyl-2-((2S)-2-(5-((2-((2S)-1-((2R)-tetrahydro-2-furanylcarbonyl)-2-pyrrolidinyl)-1H-benzimidazol-5-yl)ethynyl)-1H-benzimidazol-2-yl)-1-pyrrolidinyl) ethanamine] the figure was less than 4.57 nM; with `O=C(OCc1ccccc1)N1CCC[C@H]1c1nc2cc(C#Cc3ccc4[nH]c([C@@H]5CCCN5C(=O)[C@H]5CCCO5)nc4c3)ccc2[nH]1` [Example M54, benzyl (2S)-2-(5-((2-((2S)-1-((2R)-tetrahydro-2-furanylcarbonyl)-2-pyrrolidinyl)-1H-benzimidazol-5-yl)ethynyl)-1H-benzimidazol-2-yl)-1-pyrrolidine-carboxylate], less than 4.57 nM; with `O=C(c1ccccc1)N1CCC[C@H]1c1nc2ccc(C#Cc3ccc4[nH]c([C@@H]5CCCN5C(=O)[C@H]5CCCO5)nc4c3)cc2[nH]1` [Example M54.1, 5-((2-((2S)-1-benzoyl-2-pyrrolidinyl)-1H-benzimidazol-6-yl)ethynyl)-2-((2S)-1-((2R)-tetrahydro-2-furanylcarbonyl)-2-pyrrolidinyl)-1H-benzimidazole], 4.57 to 99 nM.
`O=C(c1cccnc1)N1CCC[C@H]1c1nc2ccc(C#Cc3ccc4[nH]c([C@@H]5CCCN5C(=O)[C@H]5CCCO5)nc4c3)cc2[nH]1` [Example M54.3, 5-((2-((2S)-1-(3-pyridinylcarbonyl)-2-pyrrolidinyl)-1H-benzimidazol-6-yl)ethynyl)-2-((2S)-1-((2R)-tetrahydro-2-furanylcarbonyl)-2-pyrrolidinyl)-1H-benzimidazole]: the EC50 was in the range of 4.57 to 99 nM.
Same read-out and setting: the result for `O=C(c1cccs1)N1CCC[C@H]1c1nc2cc(C#Cc3ccc4nc([C@@H]5CCCN5C(=O)[C@H]5CCCO5)[nH]c4c3)ccc2[nH]1` [Example M54.4, 5-((2-((2S)-1-((2R)-tetrahydro-2-furanylcarbonyl)-2-pyrrolidinyl)-1H-benzimidazol-6-yl)ethynyl)-2-((2S)-1-(2-thienylcarbonyl)-2-pyrrolidinyl)-1H-benzimidazole] reads less than 4.57 nM; that for `O=C(c1ccoc1)N1CCC[C@H]1c1nc2ccc(C#Cc3ccc4[nH]c([C@@H]5CCCN5C(=O)[C@H]5CCCO5)nc4c3)cc2[nH]1` [Example M54.5, 5-((2-((2S)-1-(3-furoyl)-2-pyrrolidinyl)-1H-benzimidazol-6-yl)ethynyl)-2-((2S)-1-((2R)-tetrahydro-2-furanylcarbonyl)-2-pyrrolidinyl)-1H-benzimidazole], 4.57 to 99 nM.
On the same count and under the same terms, the result for `Cn1cccc1C(=O)N1CCC[C@H]1c1nc2ccc(C#Cc3ccc4[nH]c([C@@H]5CCCN5C(=O)[C@H]5CCCO5)nc4c3)cc2[nH]1` [Example M54.6, 5-((2-((2S)-1-((1-methyl-1H-pyrrol-2-yl)carbonyl)-2-pyrrolidinyl)-1H-benzimidazol-6-yl)ethynyl)-2-((2S)-1-((2R)-tetrahydro-2-furanylcarbonyl)-2-pyrrolidinyl)-1H-benzimidazole] reads 4.57 to 99 nM.
Same read-out and setting: with `CCC(=O)N1CCC[C@H]1c1nc2ccc(C#Cc3ccc4[nH]c([C@@H]5CCCN5C(=O)[C@H]5CCCO5)nc4c3)cc2[nH]1` [Example M54.7, 5-((2-((2S)-1-propionyl-2-pyrrolidinyl)-1H-benzimidazol-6-yl)ethynyl)-2-((2S)-1-((2R)-tetrahydro-2-furanylcarbonyl)-2-pyrrolidinyl)-1H-benzimidazole] the figure was 4.57 to 99 nM; with `CC(C)C(=O)N1CCC[C@H]1c1nc2ccc(C#Cc3ccc4[nH]c([C@@H]5CCCN5C(=O)[C@H]5CCCO5)nc4c3)cc2[nH]1` [Example M54.8, 5-((2-((2S)-1-isobutyryl-2-pyrrolidinyl)-1H-benzimidazol-6-yl)ethynyl)-2-((2S)-1-((2R)-tetrahydro-2-furanylcarbonyl)-2-pyrrolidinyl)-1H-benzimidazole], 4.57 to 99 nM.
Turning to `O=C(C1CC1)N1CCC[C@H]1c1nc2ccc(C#Cc3ccc4[nH]c([C@@H]5CCCN5C(=O)[C@H]5CCCO5)nc4c3)cc2[nH]1` [Example M54.9, 5-((2-((2S)-1-(cyclopropyl-carbonyl)-2-pyrrolidinyl)-1H-benzimidazol-6-yl)ethynyl)-2-((2S)-1-((2R)-tetrahydro-2-furanylcarbonyl)-2-pyrrolidinyl)-1H-benzimidazole], the EC50 is 4.57 to 99 nM.
Take `O=C(C1CCC1)N1CCC[C@H]1c1nc2ccc(C#Cc3ccc4[nH]c([C@@H]5CCCN5C(=O)[C@H]5CCCO5)nc4c3)cc2[nH]1` [Example M54.10, 5-((2-((2S)-1-(cyclobutyl-carbonyl)-2-pyrrolidinyl)-1H-benzimidazol-6-yl)ethynyl)-2-((2S)-1-((2R)-tetrahydro-2-furanylcarbonyl)-2-pyrrolidinyl)-1H-benzimidazole]: the 50% effective concentration (EC50) fell in the range of 4.57 to 99 nM.
Still for that read-out and setting: with `CNc1ccccc1C(=O)N1CCC[C@H]1c1nc2cc(C#Cc3ccc4[nH]c([C@@H]5CCCN5C(=O)[C@H]5CCCO5)nc4c3)ccc2[nH]1` [Example M54.11, N-methyl-2-(((2S)-2-(5-((2-((2S)-1-((2R)-tetrahydro-2-furanylcarbonyl)-2-pyrrolidinyl)-1H-benzimidazol-5-yl)ethynyl)-1H-benzimidazol-2-yl)-1-pyrrolidinyl)carbonyl)aniline] the figure was 4.57 to 99 nM.
The same measure, in the same setting: with `CCCOc1ccccc1C(=O)N1CCC[C@H]1c1nc2ccc(C#Cc3ccc4[nH]c([C@@H]5CCCN5C(=O)[C@H]5CCCO5)nc4c3)cc2[nH]1` [Example M54.12, 5-((2-((2S)-1-(2-propoxybenzoyl)-2-pyrrolidinyl)-1H-benzimidazol-6-yl)ethynyl)-2-((2S)-1-((2R)-tetrahydro-2-furanylcarbonyl)-2-pyrrolidinyl)-1H-benzimidazole] the figure was 100 to 999 nM; with `O=C(c1ccccc1NCc1ccccc1)N1CCC[C@H]1c1nc2cc(C#Cc3ccc4[nH]c([C@@H]5CCCN5C(=O)[C@H]5CCCO5)nc4c3)ccc2[nH]1` [Example M54.13, N-benzyl-2-(((2S)-2-(5-((2-((2S)-1-((2R)-tetrahydro-2-furanylcarbonyl)-2-pyrrolidinyl)-1H-benzimidazol-5-yl)ethynyl)-1H-benzimidazol-2-yl)-1-pyrrolidinyl)carbonyl)aniline], 100 to 999 nM; with `O=C(CCOc1ccccc1)N1CCC[C@H]1c1nc2ccc(C#Cc3ccc4[nH]c([C@@H]5CCCN5C(=O)[C@H]5CCCO5)nc4c3)cc2[nH]1` [Example M54.15, 5-((2-((2S)-1-(3-phenoxypropanoyl)-2-pyrrolidinyl)-1H-benzimidazol-6-yl)ethynyl)-2-((2S)-1-((2R)-tetrahydro-2-furanylcarbonyl)-2-pyrrolidinyl)-1H-benzimidazole], 4.57 to 99 nM.
The same measure, in the same setting: with `CC(=O)N1CCC[C@H]1c1nc2ccc(C#Cc3ccc4[nH]c([C@@H]5CCCN5C(=O)Cc5ccccc5)nc4c3)cc2[nH]1` [Example M54.16, 5-((2-((2S)-1-acetyl-2-pyrrolidinyl)-1H-benzimidazol-6-yl)ethynyl)-2-((2S)-1-(phenylacetyl)-2-pyrrolidinyl)-1H-benzimidazole] the figure was 4.57 to 99 nM; with `COc1cccc(CC(=O)N2CCC[C@H]2c2nc3cc(C#Cc4ccc5nc([C@@H]6CCCN6C(C)=O)[nH]c5c4)ccc3[nH]2)c1` [Example M54.17, 5-((2-((2S)-1-acetyl-2-pyrrolidinyl)-1H-benzimidazol-6-yl)ethynyl)-2-((2S)-1-((3-methoxyphenyl)acetyl)-2-pyrrolidinyl)-1H-benzimidazole], 4.57 to 99 nM.
Consider `CC(=O)N1CCC[C@H]1c1nc2ccc(C#Cc3ccc4[nH]c([C@@H]5CCCN5C(=O)c5ccccc5)nc4c3)cc2[nH]1` [Example M54.18, 5-((2-((2S)-1-acetyl-2-pyrrolidinyl)-1H-benzimidazol-6-yl)ethynyl)-2-((2S)-1-benzoyl-2-pyrrolidinyl)-1H-benzimidazole], for which the EC50 was 4.57 to 99 nM.

These data come from US7906655B2, “Hepatitis C virus inhibitors” (Bristol-Myers Squibb Company, priority 2008, dated 2011).
